In paper PMC3757052, “Molecular Cloning and Characterization of Novel Glutamate-Gated Chloride Channel Subunits from Schistosoma mansoni” (PLoS Pathogens, 2013):

Columns and labels:
Test in all cases: two-electrode voltage clamp in Xenopus oocytes
Format in all cases: cell-based
SmGluCl-3 = target: T1, SmGluCl-3 (Schistosoma mansoni, UniProt T2C5W6)
T1 construct: gene GluCl; full-length subunit, homomeric receptor (KC861384)

SmGluCl-1 = target: T2, SmGluCl-1 (Schistosoma mansoni, UniProt G4VR43)
T2 construct: full-length subunit co-expressed 1:1 with SmGluCl-2.1 (heteromer; no functional SmGluCl-1 homomer); with SmGluCl-2.1
T2 sequence (T2C5A6 entry or part of it): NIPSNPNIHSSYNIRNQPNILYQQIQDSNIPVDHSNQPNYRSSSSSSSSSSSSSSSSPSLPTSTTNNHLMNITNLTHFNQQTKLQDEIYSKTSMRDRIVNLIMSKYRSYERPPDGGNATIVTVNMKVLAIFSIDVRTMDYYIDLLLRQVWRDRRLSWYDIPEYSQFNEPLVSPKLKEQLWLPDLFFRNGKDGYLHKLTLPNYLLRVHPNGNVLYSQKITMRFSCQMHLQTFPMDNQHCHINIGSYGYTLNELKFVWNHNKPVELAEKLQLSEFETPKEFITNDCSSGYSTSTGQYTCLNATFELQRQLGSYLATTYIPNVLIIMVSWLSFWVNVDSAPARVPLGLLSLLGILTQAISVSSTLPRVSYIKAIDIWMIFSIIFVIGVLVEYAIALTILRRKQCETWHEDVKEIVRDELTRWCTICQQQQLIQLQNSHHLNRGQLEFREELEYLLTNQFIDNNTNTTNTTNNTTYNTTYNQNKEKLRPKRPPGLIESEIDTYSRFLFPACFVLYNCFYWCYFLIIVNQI
T2 sequence (G4VR43 entry or part of it): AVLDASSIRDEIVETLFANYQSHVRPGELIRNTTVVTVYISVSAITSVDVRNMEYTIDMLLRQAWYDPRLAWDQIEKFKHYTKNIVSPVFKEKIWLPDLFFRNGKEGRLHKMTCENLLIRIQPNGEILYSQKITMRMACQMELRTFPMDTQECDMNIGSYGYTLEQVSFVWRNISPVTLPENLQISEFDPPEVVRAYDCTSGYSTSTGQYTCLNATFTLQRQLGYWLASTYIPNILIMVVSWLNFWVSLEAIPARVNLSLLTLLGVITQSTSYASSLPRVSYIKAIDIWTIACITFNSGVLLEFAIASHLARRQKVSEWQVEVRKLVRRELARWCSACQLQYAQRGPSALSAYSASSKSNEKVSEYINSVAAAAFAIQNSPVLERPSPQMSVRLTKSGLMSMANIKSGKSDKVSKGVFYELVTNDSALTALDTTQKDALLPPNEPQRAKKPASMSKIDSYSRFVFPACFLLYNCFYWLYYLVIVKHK

SmGluCl-2.1 (SmGluCl-2) = target: T3, SmGluCl-2.1 (SmGluCl-2) (Schistosoma mansoni, UniProt T2C5A6)
T3 construct: gene GluCl; full-length subunit isoform 1, homomeric receptor (KC861382)
T3 sequence (T2C5A6 entry or part of it): as the sequence (T2C5A6 entry or part of it) above

T1 sequence (T2C5W6 entry or part of it): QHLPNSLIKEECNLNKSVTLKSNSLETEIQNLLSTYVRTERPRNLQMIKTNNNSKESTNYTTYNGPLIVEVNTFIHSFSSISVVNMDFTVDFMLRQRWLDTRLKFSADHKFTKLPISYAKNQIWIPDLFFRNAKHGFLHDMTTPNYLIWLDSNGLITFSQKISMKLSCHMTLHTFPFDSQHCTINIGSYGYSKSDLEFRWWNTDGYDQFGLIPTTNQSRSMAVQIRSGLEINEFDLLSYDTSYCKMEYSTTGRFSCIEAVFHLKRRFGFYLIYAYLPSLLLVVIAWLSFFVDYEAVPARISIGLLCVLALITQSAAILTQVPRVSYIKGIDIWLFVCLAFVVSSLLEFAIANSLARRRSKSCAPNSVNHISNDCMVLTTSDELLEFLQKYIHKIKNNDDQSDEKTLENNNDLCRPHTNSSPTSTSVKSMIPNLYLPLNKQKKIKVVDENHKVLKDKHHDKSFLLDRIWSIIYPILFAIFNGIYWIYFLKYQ

N[C@@H](CCC(=O)O)C(=O)O [L-glutamate]
EC50 (SmGluCl-3): 6.9 ± 0.5 µM
EC50 (SmGluCl-1): 26.3 ± 2 µM
EC50 (SmGluCl-2.1 (SmGluCl-2)): 11.8 ± 0.6 µM
